Active and inactive are the calls of the source. No cut-off for these calls is given here.

The subject of assay [1] is Mus musculus. Nature of the assay: Antinociceptive activity (100 mg/Kg) was determined using mouse tail flick test. It counts as functional. Background: Thermal pain tests record how soon the animal reacts.
The species named for assay [2] is Mus musculus. Put plainly: Antinociceptive activity using mouse abdominal constriction test; inactive. The class given is functional, organism-based. The following applies: Abdomen.
Assay [3] relates to Mus musculus. Put plainly: Antinociceptive activity (50 mg/Kg) was determined using mouse tail flick test. The class given is functional.
The test system of assay [4] is Mus musculus. Put plainly: Antinociceptive activity (10 mg/Kg) was determined using mouse abdominal constriction test. The class given is functional, Abdomen.
The species entered for assay [5] is Mus musculus. Nature of the assay: Antinociceptive activity in mice, determined using abdominal constriction test. The class given is functional. The following applies: Abdomen.
The species named for assay [6] is Mus musculus. Put plainly: Antinociceptive activity using mouse tail flick test; Inactive. It counts as functional, organism-based.
Assay [7] has as its system Mus musculus. Put plainly: Antinociceptive activity in mice following i.p. treatment, determined using tail flick test. Particulars: ip. It counts as functional.
In assay [8] the target is T1, Adrenergic receptor alpha-2 (Rattus norvegicus, UniProt P22086+P19328+P22909).
T1 sequence (P22086 whole entry): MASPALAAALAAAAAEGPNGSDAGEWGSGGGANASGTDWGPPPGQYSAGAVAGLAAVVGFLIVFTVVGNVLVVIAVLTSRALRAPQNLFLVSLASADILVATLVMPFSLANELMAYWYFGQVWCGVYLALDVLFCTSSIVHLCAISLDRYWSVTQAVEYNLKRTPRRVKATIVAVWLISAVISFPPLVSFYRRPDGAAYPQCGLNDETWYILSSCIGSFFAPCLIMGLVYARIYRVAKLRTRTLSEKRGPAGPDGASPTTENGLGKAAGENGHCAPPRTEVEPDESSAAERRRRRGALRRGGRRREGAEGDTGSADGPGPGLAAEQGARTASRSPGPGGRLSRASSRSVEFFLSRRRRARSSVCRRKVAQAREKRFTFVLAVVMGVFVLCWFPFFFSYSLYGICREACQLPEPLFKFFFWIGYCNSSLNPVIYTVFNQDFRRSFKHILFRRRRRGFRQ
T1 sequence (P19328 whole entry): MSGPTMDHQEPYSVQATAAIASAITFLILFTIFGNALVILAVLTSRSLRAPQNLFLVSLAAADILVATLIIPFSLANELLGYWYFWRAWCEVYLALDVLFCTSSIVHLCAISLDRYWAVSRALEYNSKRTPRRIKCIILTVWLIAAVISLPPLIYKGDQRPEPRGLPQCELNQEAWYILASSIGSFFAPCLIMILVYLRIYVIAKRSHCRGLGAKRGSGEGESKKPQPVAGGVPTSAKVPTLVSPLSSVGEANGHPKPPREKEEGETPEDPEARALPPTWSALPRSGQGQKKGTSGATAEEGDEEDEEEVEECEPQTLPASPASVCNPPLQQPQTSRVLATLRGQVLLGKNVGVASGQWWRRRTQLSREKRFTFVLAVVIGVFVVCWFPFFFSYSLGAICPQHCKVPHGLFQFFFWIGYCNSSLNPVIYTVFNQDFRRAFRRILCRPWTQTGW
T1 sequence (P22909 whole entry): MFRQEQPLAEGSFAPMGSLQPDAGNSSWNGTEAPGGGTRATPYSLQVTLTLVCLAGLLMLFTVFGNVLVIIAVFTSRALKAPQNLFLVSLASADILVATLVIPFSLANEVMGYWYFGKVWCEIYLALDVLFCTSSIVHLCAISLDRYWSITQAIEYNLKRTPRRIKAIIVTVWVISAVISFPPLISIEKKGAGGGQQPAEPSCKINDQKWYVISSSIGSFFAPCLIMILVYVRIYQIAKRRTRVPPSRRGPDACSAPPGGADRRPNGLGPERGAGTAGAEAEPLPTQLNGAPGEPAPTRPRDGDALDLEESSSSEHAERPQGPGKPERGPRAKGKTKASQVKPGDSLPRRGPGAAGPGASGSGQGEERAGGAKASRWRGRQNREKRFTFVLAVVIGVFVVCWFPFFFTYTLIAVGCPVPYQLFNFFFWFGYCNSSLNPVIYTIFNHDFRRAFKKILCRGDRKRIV
Nature of the assay: Inhibitory constant was measured on alpha-2 adrenergic receptor /uptake using [3H] clonidine as radioligand in rat brain cortex. It counts as tissue-based.

Assay [9] concerns the target GABA-A receptor; anion channel (Rattus norvegicus) (UniProt O09028+P15431+P18506+P18508+P19969+P20236+P23574+P23576+P28471+P28473+P30191+P62813+P63079+P63138+Q91ZM7+Q9ES14). Nature of the assay: Inhibition of [3H]GABA binding to gamma-aminobutyric-acid A (GABA-A) receptor of rat brain cerebellum at 10 uM. The class given is tissue-based.
The target of assay [10] is Adrenergic receptor beta (Rattus norvegicus) (UniProt P18090+P10608+P26255). Nature of the assay: Inhibitory constant (1 uM) was measured on beta adrenergic receptor/uptake using [3H]- dihydroalprenolol as radioligand in rat brain cortex. It counts as tissue-based.
The target of assay [11] is Cannabinoid receptor (Rattus norvegicus) (UniProt Q9QZN9+P20272). Nature of the assay: Inhibitory constant (10 uM) was measured on cannabinoid receptor/uptake using [3H]CP-55940 as radioligand in rat brain cortex. The class given is tissue-based.
Assay [12] deals with Serotonin 2 (5-HT2) receptor (Rattus norvegicus) (UniProt P30994+P08909+P14842). Nature of the assay: Inhibitory constant (1 uM) was measured on 5-hydroxytryptamine 2 receptor/uptake using [3H]- ketanserin as radioligand in rat brain cortex. It counts as tissue-based.
Assay [13] addresses Opioid receptor (Rattus norvegicus) (UniProt P33533+P34975+P33535). Nature of the assay: Inhibitory constant (10 uM) was measured on opioid receptor/uptake using [3H]- naloxone as radioligand in rat whole brain.
Assay [14] concerns the target Adrenergic receptor alpha-1 (Rattus norvegicus) (UniProt P15823+P23944+P43140). Nature of the assay: Inhibitory constant (1 uM) was measured on alpha-1 adrenergic receptor/uptake using [3H]- WB-4101 as radioligand in rat brain cortex. It counts as tissue-based.
Assay [15] addresses Serotonin 1 (5-HT1) receptor (Rattus norvegicus) (UniProt P28564+P30940+P19327+P28565). Nature of the assay: Inhibition constant (1 uM) was measured on 5-hydroxytryptamine 1 receptor/uptake using [3H]- serotonin as radioligand in rat brain cortex. The class given is tissue-based.
Assay [16] deals with D(2) dopamine receptor (Rattus norvegicus) (UniProt P61169). Nature of the assay: Inhibitory constant (1 uM) was measured on dopamine receptor D2 using [3H]- spiperone as radioligand in rat brain striatum. It counts as tissue-based.
The target of assay [17] is T1, Adrenergic receptor alpha-2. Put plainly: Inhibitory constant was measured on alpha-2 adrenergic receptor /uptake using [3H]- clonidine as radioligand in rat brain cortex. It counts as tissue-based.

Sequence of Cannabinoid receptor (Rattus norvegicus) (P20272 whole entry, looked up): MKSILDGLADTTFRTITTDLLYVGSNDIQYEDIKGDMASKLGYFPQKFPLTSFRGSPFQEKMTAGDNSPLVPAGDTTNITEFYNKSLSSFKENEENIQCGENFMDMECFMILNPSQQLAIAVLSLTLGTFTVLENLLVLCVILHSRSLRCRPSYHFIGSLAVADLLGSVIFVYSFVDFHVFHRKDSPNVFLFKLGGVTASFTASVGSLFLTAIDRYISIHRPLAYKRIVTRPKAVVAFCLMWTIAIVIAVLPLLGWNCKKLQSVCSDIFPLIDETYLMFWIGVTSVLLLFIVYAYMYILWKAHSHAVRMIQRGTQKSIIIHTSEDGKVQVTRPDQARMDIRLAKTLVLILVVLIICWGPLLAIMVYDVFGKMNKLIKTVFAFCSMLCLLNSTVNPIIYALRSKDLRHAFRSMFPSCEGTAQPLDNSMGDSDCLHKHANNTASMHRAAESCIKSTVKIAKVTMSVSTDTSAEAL
Sequence of Cannabinoid receptor (Rattus norvegicus) (Q9QZN9 whole entry, looked up): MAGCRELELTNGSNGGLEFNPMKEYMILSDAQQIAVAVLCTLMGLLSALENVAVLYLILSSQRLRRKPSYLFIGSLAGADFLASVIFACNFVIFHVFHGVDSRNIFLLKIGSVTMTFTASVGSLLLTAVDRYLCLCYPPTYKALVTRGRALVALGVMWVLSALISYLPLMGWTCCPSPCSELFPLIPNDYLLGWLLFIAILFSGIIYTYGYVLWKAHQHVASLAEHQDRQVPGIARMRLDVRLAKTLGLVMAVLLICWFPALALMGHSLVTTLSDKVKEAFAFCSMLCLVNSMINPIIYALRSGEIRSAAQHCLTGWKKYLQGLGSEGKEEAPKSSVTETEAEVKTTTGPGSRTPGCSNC
Sequence of Opioid receptor (Rattus norvegicus) (P33533 whole entry, looked up): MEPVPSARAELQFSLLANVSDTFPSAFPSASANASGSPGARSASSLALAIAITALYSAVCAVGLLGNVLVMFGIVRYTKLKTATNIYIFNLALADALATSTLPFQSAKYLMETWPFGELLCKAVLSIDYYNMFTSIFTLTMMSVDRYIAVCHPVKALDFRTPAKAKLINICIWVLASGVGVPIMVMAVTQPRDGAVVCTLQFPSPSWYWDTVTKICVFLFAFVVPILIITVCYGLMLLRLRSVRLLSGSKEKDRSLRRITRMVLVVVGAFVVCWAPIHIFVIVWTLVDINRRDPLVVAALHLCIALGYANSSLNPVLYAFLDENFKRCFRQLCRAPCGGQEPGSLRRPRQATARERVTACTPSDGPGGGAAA
Sequence of Opioid receptor (Rattus norvegicus) (P33535 whole entry, looked up): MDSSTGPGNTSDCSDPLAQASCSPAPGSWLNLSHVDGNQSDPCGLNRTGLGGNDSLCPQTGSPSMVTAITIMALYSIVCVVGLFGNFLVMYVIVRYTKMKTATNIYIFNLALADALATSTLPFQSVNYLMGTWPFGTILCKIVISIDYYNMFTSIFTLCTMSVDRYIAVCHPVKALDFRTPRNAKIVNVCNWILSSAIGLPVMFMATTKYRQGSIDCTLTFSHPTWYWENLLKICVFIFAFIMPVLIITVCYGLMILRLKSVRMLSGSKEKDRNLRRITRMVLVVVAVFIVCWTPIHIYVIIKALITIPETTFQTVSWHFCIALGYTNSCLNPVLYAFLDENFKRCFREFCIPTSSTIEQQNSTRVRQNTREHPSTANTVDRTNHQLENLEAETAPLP
Sequence of Opioid receptor (Rattus norvegicus) (P34975 whole entry, looked up): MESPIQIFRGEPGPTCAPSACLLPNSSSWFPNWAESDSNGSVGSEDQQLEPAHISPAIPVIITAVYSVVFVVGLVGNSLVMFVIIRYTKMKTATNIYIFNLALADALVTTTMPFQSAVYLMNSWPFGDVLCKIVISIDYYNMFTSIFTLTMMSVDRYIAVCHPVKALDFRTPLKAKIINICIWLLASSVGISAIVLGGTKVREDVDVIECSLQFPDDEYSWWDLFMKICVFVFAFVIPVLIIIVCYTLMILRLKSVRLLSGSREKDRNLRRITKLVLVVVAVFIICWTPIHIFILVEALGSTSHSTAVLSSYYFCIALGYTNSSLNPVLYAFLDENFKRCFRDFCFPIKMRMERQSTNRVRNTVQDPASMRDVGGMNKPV
Sequence of D(2) dopamine receptor (Rattus norvegicus) (P61169 whole entry): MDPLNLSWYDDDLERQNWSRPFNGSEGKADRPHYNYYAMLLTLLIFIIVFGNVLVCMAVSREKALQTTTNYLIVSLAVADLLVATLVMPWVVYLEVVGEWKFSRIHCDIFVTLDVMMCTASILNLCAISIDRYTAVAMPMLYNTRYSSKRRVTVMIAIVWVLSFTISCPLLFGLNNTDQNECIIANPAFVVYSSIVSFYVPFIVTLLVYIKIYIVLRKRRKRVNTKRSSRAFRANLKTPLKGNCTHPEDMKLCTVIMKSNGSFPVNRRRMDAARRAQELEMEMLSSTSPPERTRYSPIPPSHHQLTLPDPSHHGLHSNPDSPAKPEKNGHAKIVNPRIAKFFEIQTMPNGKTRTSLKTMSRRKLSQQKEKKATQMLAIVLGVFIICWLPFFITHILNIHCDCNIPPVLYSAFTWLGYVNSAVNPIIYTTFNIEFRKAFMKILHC
Sequence of Serotonin 2 (5-HT2) receptor (Rattus norvegicus) (P08909 whole entry, looked up): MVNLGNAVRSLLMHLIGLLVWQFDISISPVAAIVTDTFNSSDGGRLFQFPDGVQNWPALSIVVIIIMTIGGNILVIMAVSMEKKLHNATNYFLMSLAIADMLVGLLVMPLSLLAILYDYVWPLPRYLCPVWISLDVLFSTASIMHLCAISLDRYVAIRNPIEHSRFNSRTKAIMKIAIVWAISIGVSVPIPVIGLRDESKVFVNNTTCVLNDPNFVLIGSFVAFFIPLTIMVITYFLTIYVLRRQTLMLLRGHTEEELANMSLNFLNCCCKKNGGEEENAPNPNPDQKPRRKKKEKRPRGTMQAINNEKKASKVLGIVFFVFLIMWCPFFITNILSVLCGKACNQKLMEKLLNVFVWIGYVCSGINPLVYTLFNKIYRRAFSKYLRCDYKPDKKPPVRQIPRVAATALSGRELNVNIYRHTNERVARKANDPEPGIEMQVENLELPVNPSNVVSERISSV
Sequence of Serotonin 2 (5-HT2) receptor (Rattus norvegicus) (P14842 whole entry, looked up): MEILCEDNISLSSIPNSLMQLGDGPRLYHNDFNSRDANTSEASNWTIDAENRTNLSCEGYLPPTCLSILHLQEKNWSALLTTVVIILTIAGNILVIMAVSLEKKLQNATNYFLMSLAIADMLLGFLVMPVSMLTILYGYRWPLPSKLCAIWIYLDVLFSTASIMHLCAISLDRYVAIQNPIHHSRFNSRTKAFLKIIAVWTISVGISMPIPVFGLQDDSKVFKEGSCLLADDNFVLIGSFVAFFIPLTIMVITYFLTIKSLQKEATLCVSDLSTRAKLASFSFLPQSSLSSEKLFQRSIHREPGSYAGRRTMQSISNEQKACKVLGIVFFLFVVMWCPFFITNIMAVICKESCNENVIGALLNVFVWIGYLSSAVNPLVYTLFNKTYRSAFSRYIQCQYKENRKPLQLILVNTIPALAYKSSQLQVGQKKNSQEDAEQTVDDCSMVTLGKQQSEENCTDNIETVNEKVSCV
Sequence of Serotonin 2 (5-HT2) receptor (Rattus norvegicus) (P30994 whole entry, looked up): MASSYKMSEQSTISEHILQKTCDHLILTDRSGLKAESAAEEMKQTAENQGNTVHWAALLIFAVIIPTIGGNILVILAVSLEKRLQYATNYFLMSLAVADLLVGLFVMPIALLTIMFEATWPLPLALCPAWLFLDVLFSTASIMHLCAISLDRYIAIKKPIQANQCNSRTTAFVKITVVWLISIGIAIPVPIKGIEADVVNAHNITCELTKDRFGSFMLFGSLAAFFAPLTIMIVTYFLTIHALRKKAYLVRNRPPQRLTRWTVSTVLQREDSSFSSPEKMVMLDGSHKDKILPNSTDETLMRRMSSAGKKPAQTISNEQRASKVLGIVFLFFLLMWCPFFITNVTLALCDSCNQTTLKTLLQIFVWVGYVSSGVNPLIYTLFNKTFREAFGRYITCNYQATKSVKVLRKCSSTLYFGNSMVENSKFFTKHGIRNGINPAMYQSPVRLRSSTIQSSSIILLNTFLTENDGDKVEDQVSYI

In the case of `Brc1cccc([C@H]2CC[C@H]3CCCCN32)c1.Cl`, the Response in assay [1] is on record as 60%. For the same compound, the ED50 (as a rule, the dose at which the effect has come halfway, by size or by number of responders) in assay [2] was “inactive”.
As for `C1CCC([C@H]2CC[C@H]3CCCCN32)CC1.Cl`, the Response in [3] came to 60%; in assay [4] it was 50%.
`Cl.c1ccc(COc2ccc([C@H]3CC[C@H]4CCCCN43)cc2)cc1`: the Response in assay [1] is recorded as 50%. In addition, the ED50 in [5] came out at 16.8 mg/kg.
On to `Brc1ccc([C@H]2CC[C@H]3CCCCN32)cc1.Cl`, for which the ED50 result in assay [6] is “inactive”. Besides, the ED50 in assay [5] worked out at 18.8 mg/kg.
In the case of `c1ccc(C2CCC3CCCN32)cc1` (stereo unspecified), the ED50 is over 25 mg/kg in assay [7] and 5.7 mg/kg in assay [5].
With `Brc1ccccc1[C@H]1CC[C@H]2CCCCN21.Cl` (racemic), the Ki – broadly, the equilibrium dissociation constant of an inhibitor or competing ligand from its target – in assay [8] was found to be 1120 nM.
`Brc1ccccc1[C@H]1CC[C@H]2CCCCN21` (racemic): the Response in assay [9] is 2%; in assay [10], -3%; in assay [11], 1%; in [12] it was -18%; in assay [13], 17%; in assay [14], 6%. Also, the Response in [15] worked out at 7%; in assay [16] it was 0%.
For `Brc1ccccc1[C@H]1CC[C@H]2CCCCN21.Cl` (stereo in doubt; (+)2a), in assay [17], the Ki was 1200 nM. This lies in the single-digit micromolar range.
Turning to `Brc1ccccc1[C@H]1CC[C@H]2CCCCN21` (stereo in doubt; (+)2a), the Response in assay [9] was 4%; in [10], -1%; in assay [11], 6%.
On to `Brc1ccccc1[C@H]1CC[C@H]2CCCCN21.Cl` (stereo in doubt; (-)2a), for which the Ki in [17] came out at 2840 nM.
For the compound `Brc1ccccc1[C@H]1CC[C@H]2CCCCN21` (stereo in doubt; (-)2a), the figures for the Response in assay [9], in [10] and in assay [11] were -2%, -5% and 2%, respectively.
In the case of `COc1ccc2c3c1O[C@H]1[C@@H](O)C=C[C@H]4[C@@H](C2)N(C)CC[C@@]341.COc1ccc2c3c1O[C@H]1[C@@H](O)C=C[C@H]4[C@@H](C2)N(C)CC[C@@]341.O.O=P(O)(O)O.O=P(O)(O)O` [CODEINE PHOSPHATE], the median effective dose (ED50) in assay [7] is 30 mg/kg; in assay [5], 11.1 mg/kg.
`CC(C)Cc1ccc(C(C)C(=O)O)cc1` (stereo unspecified) [IBUPROFEN]: the ED50 entry in assay [6] is “inactive”. The ED50 in assay [5] amounted to 15.7 mg/kg.
